Patent publication US10894777B2, “TG2 inhibitor piperazine compounds and uses thereof” (UNIVERSITY OF OTTAWA, priority 2016, dated 2021)

How the values were obtained:
TS565 neurospheres = assay: Neurosphere growth, TS565 (proneural); assay type: cell-based, human; conditions: 25 μM, 2 weeks
From the text: Neurosphere cultures. TS543, TS565 and TS676, which represent the mesenchymal, proneural and classical glioblastoma subtypes respectively, based on transcriptomic and genomic analysis, were obtained from C. Brennan through the Monoclonal Antibody Core Facility at Memorial Sloan Kettering Cancer Center (Brennan, C. et al., PLoS One 4(11):e7752, 2009; Pyonteck, S. M. et al., Nature Med. 19(10):1264-72, 2013; Rohle, D. et al., Science 340(6132):626-30, 2013) and maintained in NeuroCult™ NS-A Proliferation Kit (Human) (Stem Cell Technologies) according to manufacturer's instructions. (NeuroCult Medium was supplemented with 20 ng/mL FGF, 50 ng/mL EGF and 0.0002% Heparin). To prevent neurosphere attachment to the bottom of the cell culture plates, Poly 2-hydroxyethyl methacrylate (PHM) was used. 6-well plates were coated with 1 mL/well of 1% PHM in ethanol (w/v). The plates were air dried in a sterile environment overnight and washed once with PBS and they were kept in the fridge in a sterile environment until use. For passaging, neurospheres were triturated according to instructions and 5,000 cells were seeded in each well in 2 mL medium. For treatments with TG2 inhibitors, cells were inoculated in medium containing 25 μM TG2 inhibitor or DMSO control. 200 μL of medium containing the 25 μM TG2 inhibitor or DMSO was added every other day. At the end of 2 weeks, 20-50 random microscopic images were captured for each group. The average volume of each sphere image was determined using Image J by a person blinded for neurosphere lines and treatments and volumes were calculated from the area data and used for comparison.

FXIIIa = target: T1, FXIIIa (Homo sapiens, UniProt P00488); assay: Fluorescence isopeptidase activity assay (A101 probe), FXIIIa; assay type: biochemical
T1 construct: purchased Zedira
Protocol: (§1) Selectivity of certain irreversible inhibitors over other members of the transglutaminase family was assessed. […] Inhibitors were tested using a continuous colorimetric assay (Leblanc, A. et al., Biochemistry (2001), 40 (28): 8335-8342) for hTG1 and hTG6 and a commercially available continuous fluorescent assay that utilizes a peptidic FRET quenched substrate (Oertel, K. et al., Anal. Biochem. (2007), 367 (2): 152-158; Király, R. et al., Amino Acids (2016), 48 (1): 31-40) for the other transglutaminases, FXIIIa and hTG3. The rate constant of enzyme inactivation (kobs) for a specific concentration of inhibitor was obtained using Kitz and Wilson conditions (Kitz, R. et al., J. Biol. Chem. (1962), 237: 3245-49). Inhibitor concentrations were adjusted to account for competition with substrates in each enzymatic reaction.
Fluorescence isopeptidase activity assay. The isopeptidase activity of pre-activated TG3a and FXIIIa (purchased from Zedira) was measured via a fluorescence-based assay (Király, R. et al., Amino Acids (2016), 48 (1): 31-40) using the commercially available peptidic FRET quenched probe A101 from Zedira. Briefly, the final concentration in the reaction mixture contained 50 mM Tris (pH 7.0), 10 mM CaCl2, 100 mM NaCl, 2.8 mM TCEP, 50 μM A101 and 14 mM H-Gly-OMe. The reaction was monitored at 25° C. using a BioTek Synergy 4 plate reader (Ex/Em: 318/413 nm).

hTG6 = hTG6 (Homo sapiens, UniProt O95932); assay: Colorimetric transamidase activity assay (AL5 substrate), hTG6; assay type: biochemical
Protocol: as §1
In Vitro Assays. Colorimetric transamidase activity assay.

A431 cells [1] = assay: EMT marker immunoblot, A431 cells; assay type: cell-based, human; conditions: 20 μM, 48 h
Protocol: In (A), it is shown that A431-derived ECS cells have elevated TG2 and mesenchymal markers. A431 cells (40,000 cells/well) were grown in spheroid media in monolayer conditions or as non-attached spheroids (ECS cells) for 10 d. Cells were harvested and lysates prepared for immunoblot. In (B), A431 cells were electroporated with 3 μg of control- or TG2-siRNA and at 72 h extracts were prepared to assay TG2 and EMT marker level. In (C), A431-derived ECS cells were electroporated with 3 μg of the indicated siRNA and then grown as spheroids for 96 h. […] In (D), A431 cells (500,000 cells/well) were plated in monolayer culture in spheroid media in 100 mm dishes. The following day, at time zero, 0 or 20 μM NC9 was added with fresh addition of medium and NC9 at 24 h. At 48 h the cells were harvested and extracts prepared for immunoblot. In (E), A431 cells were pretreated in 0 or 20 μM NC9 for 2 h and then harvested and 25,000 cells were seeded in the upper chamber above a matrigel-coated membrane in 1 mL of growth medium containing 1% FCS in a Millicell chamber. The lower chamber was filled with growth medium containing 10% FCS. […] Confluent monolayers were then scratched with a 10-μL pipette tip, rinsed, and width of the wound was monitored for 0-14 h. […]

A431 cells [2] = assay: Spheroid formation assay, A431 cells; assay type: cell-based, human; conditions: 20 μM, 48 h on day 8 spheroids
Protocol: In (A), it is shown that A431-derived ECS cells have elevated TG2 and mesenchymal markers. A431 cells (40,000 cells/well) were grown in spheroid media in monolayer conditions or as non-attached spheroids (ECS cells) for 10 d. Cells were harvested and lysates prepared for immunoblot. In (B), A431 cells were electroporated with 3 μg of control- or TG2-siRNA and at 72 h extracts were prepared to assay TG2 and EMT marker level. In (C), A431-derived ECS cells were electroporated with 3 μg of the indicated siRNA and then grown as spheroids for 96 h. […] In (D), A431 cells (500,000 cells/well) were plated in monolayer culture in spheroid media in 100 mm dishes. The following day, at time zero, 0 or 20 μM NC9 was added with fresh addition of medium and NC9 at 24 h. At 48 h the cells were harvested and extracts prepared for immunoblot. In (E), A431 cells were pretreated in 0 or 20 μM NC9 for 2 h and then harvested and 25,000 cells were seeded in the upper chamber above a matrigel-coated membrane in 1 mL of growth medium containing 1% FCS in a Millicell chamber. […] Confluent monolayers were then scratched with a 10-μL pipette tip, rinsed, and width of the wound was monitored for 0-14 h.
Spheroid formation assay. […] Spheroid size and number was monitored with time in culture as previously described (Adhikary, G. et al., PLoS One 8:e84324, 2013).

[3] = Table 9, Kitz and Wilson conditions

T1 sequence (P00488 39-732 limits assumed): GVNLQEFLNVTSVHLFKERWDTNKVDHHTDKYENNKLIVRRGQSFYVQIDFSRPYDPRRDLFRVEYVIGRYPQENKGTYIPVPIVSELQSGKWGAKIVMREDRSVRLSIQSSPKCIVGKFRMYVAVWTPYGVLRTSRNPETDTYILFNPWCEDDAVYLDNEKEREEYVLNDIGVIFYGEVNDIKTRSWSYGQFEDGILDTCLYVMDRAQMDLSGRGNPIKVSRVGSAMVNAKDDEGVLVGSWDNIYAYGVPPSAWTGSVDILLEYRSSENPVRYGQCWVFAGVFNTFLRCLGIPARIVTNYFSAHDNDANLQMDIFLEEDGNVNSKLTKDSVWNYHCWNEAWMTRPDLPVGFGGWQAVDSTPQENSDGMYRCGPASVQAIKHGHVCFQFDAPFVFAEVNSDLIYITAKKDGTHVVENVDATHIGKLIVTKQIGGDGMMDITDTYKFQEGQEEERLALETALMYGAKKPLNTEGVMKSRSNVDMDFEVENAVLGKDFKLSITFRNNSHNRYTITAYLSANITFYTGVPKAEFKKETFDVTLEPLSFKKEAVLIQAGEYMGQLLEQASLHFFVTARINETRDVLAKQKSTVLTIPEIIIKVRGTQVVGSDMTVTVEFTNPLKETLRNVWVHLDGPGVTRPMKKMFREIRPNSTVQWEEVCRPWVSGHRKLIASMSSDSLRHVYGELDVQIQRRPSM
Chain of hTG6 (O95932 whole entry): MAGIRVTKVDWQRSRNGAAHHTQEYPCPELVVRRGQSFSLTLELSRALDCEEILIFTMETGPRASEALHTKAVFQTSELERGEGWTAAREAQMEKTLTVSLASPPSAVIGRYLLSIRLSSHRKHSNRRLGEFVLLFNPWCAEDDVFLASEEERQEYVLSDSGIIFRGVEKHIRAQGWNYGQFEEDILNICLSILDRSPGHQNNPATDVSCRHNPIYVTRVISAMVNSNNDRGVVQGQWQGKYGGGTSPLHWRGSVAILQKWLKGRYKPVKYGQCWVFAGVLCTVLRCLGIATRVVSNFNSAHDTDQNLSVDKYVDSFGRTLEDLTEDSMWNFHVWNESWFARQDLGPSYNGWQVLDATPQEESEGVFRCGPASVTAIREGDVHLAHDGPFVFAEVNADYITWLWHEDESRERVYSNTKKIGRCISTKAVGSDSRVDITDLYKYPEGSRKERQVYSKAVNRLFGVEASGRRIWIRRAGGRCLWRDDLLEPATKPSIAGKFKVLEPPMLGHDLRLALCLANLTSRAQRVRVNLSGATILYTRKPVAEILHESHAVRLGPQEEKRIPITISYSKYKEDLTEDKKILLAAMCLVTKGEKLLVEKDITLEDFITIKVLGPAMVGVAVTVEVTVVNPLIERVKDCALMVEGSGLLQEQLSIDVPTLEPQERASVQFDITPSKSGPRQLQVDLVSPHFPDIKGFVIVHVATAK

Row | SMILES | sphere growth, TS565 (TS565 neurospheres) | less reactive with FXIIIa compared to hTG2 (FXIIIa; from kobs) | inhibition of hTG6 (hTG6) | EMT markers expression (A431 cells [1]) | kobs (10^−3 min^−1), FXIIIa (FXIIIa; [3]) | spheroid formation (A431 cells [2]) | kobs (10^−3 min^−1), TG6 (hTG6; [3])
1 | C=CC(=O)NCCCC[C@H](NC(=O)OCc1ccccc1)C(=O)N1CCN(C(=O)c2cc3ccc(O)cc3oc2=O)CC1 [VA5, (S)-Benzyl(6-acrylamido-1-(4-(7-hydroxy-2-oxo-2H-chromene-3-carbonyl)piperazin-1-yl)-1-oxohexan-2-yl)carbamate] | only mildly suppressive | – | – | – | – | – | –
2 | C=CC(=O)NCCCC[C@H](NC(=O)OCc1ccccc1)C(=O)N1CCN(S(=O)(=O)c2cccc3c(N(C)C)cccc23)CC1 [VA4, (S)-benzyl(6-acrylamido-1-(4-((5-(dimethylamino)naphthalen-1-yl)sulfonyl)piperazin-1-yl)-1-oxohexan-2-yl)carbamate] | suppressed sphere growth | 80 fold | no inhibition was observed | – | – | – | –
3 | C=CC(=O)NCCCC[C@H](NC(=O)OCc1ccccc1)C(=O)NCCOCCOCCNS(=O)(=O)c1cccc2c(N(C)C)cccc12 [NC9] | suppressed sphere growth | – | – | reduction in EMT markers expression | 5.91 ± 1.59 10^−3 min^−1 | reduced spheroid formation | 6.16 ± 0.14 10^−3 min^−1
